Results published in US8859620B2, “Phthalanilate compounds and methods of use” (University of Notre Dame du Lac, priority 2009, dated 2014).
Converted amounts (≈) assume the structure as drawn.

Experiments:
[1] = target: P99 (class C β-lactamase) (Enterobacter cloacae, UniProt P05364); test: β-Lactamase assay (nitrocefin colour change), P99; format: biochemical; conditions: for P99: Table 10, class symbols x/xx/xxx, key not given; for IC50: nitrocefin 100 μM, 10 nM enzyme, 5 min pre-incubation, read-out: IC50s P99
Protocol: (§1) β-Lactamase Assays (TEM-1, P99, and OXA-10): The activity of the compounds of the invention (inhibitors) toward β-lactamases was evaluated using 96 well plates. The reaction mixture included 10 mM sodium phosphate, pH 7.0, 150 mM sodium chloride, 0.01% Triton X-100, 100 μM nitrocefin, 10 nM of β-lactamases (class A: TEM-1; class C: P99, or class D: OXA-10), and variable concentrations of the inhibitors in a total volume of 100 μL. β-Lactamases were pre-incubated with the compounds at room temperature for 5 minutes, and the assay was initiated by the addition of nitrocefin. The inhibition of the enzyme activity by the compounds was determined by monitoring color change (from yellow to red) of nitrocefin after 20 minutes. Stock solutions of the compounds were prepared in dimethyl sulfoxide (DMSO). No more than 5% DMSO was present in assays, unless noted otherwise. B1aR Assay: The surface domain of B1aR (1 μM) was added to each inhibitor (at various concentrations) in 100 mM sodium phosphate, 50 mM sodium bicarbonate, at pH 7.0. The reaction mixtures were incubated at room temperature for 20 minutes. BOCILLIN FL, a fluorogenic ligand, was added to a concentration of 20 μM in a final volume of 20 μL. The mixtures were incubated at 37° C. for 5 minutes, at which point the reactions were quenched by the addition of 15 μL of the SDS sample buffer (125 mM Tris, 4% SDS, 20% glycerol, 2% 2-mercaptoethanol, pH 6.8), and were boiled for 4 minutes. The samples were loaded onto 15% SDS-PAGE, the gel was developed and scanned using a Storm 840® Fluorimager. The fluorescent bands of BOCILLIN FL-labeled B1aR^S were analyzed by Image Quant 5.2 software. PBP2 Assay: The PBP2 assay was performed according to the methods of Villegas-Esterada et al. (J. Am. Chem. Soc. 2008, 130, 9212-9213).

[2] = target: OXA-10 (class D β-lactamase) (Pseudomonas aeruginosa, UniProt P14489); test: β-Lactamase assay (nitrocefin colour change), OXA-10; format: biochemical; conditions: for OXA-10: Table 10, class symbols x/xx/xxx, key not given; for IC50: nitrocefin 100 μM, 10 nM enzyme, 5 min pre-incubation, read-out: IC50s OXA-10
Protocol: as §1

S. aureus NRS11 (Mec^S) = test: MIC against S. aureus NRS11 (Table 13); format: cell-based, Staphylococcus aureus; conditions: for MIC: Staphylococcus aureus, compounds dissolved in DMSO or 1% sodium carbonate, read-out: MIC; for inhibitory properties (in words): Table 13
Protocol: All recited compounds were dissolved in DMSO or in 1% sodium carbonate and transferred to micro titer plates to final concentrations of 1000 μg/mL.

[3] = target: TEM-1 (class A β-lactamase) (Escherichia coli, UniProt P62593); test: β-Lactamase assay (nitrocefin colour change), TEM-1; format: biochemical; conditions: for TEM-1: Table 10, class symbols x/xx/xxx, key not given
Protocol: as §1

PBP2a = PBP2a (Staphylococcus aureus, UniProt P07944); test: PBP2 assay (Villegas-Esterada et al.); format: biochemical; conditions: Table 10
Protocol: as §1

S. aureus NRS100 (Mec^R) = test: MIC against S. aureus NRS100 (Table 14); format: cell-based, Staphylococcus aureus; conditions: for MIC: Staphylococcus aureus, compounds dissolved in DMSO or 1% sodium carbonate, read-out: MIC; for inhibitory activity (in words): Table 14
Protocol: The recited compounds were dissolved in DMSO or in 1% sodium carbonate and transferred into micro titer plate to final concentration of 1000 μg/mL.

surface domain of B1aR = surface domain of B1aR (Staphylococcus aureus, UniProt P18357); test: B1aR assay (BOCILLIN FL labeling, SDS-PAGE); format: binding, Staphylococcus aureus (MRSA); conditions: Table 10; class symbols x/xx/xxx, key not given
Protocol: as §1

[4] = tested on: methicillin-resistant strains of S. aureus; test: MIC against methicillin-resistant S. aureus (Table 15); format: cell-based; conditions: Staphylococcus aureus, dissolved in 100% DMSO, diluted into Mueller Hinton II Broth to final 16 μg/mL
Excerpt: Table 15 illustrates the inhibition of methicillin-resistant strains of S. aureus by selected compounds of the invention.

TEM-1 (class A β-lactamase), sequence (P62593 24-286 limits assumed): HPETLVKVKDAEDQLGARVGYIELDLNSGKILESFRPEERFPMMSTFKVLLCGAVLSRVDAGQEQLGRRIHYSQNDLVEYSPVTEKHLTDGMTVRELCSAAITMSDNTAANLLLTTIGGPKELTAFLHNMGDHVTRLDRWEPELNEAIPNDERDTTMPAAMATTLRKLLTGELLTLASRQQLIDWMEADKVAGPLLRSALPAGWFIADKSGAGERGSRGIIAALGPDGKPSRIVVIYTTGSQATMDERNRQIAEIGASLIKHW
surface domain of B1aR, sequence (P18357 331-585): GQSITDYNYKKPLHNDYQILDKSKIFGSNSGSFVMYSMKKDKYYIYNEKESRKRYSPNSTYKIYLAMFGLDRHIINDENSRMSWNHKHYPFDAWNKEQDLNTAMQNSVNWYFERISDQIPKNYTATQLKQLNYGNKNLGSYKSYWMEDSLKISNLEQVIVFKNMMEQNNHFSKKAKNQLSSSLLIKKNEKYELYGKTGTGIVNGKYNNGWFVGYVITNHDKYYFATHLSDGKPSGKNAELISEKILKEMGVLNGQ
PBP2a, sequence (P07944 whole entry): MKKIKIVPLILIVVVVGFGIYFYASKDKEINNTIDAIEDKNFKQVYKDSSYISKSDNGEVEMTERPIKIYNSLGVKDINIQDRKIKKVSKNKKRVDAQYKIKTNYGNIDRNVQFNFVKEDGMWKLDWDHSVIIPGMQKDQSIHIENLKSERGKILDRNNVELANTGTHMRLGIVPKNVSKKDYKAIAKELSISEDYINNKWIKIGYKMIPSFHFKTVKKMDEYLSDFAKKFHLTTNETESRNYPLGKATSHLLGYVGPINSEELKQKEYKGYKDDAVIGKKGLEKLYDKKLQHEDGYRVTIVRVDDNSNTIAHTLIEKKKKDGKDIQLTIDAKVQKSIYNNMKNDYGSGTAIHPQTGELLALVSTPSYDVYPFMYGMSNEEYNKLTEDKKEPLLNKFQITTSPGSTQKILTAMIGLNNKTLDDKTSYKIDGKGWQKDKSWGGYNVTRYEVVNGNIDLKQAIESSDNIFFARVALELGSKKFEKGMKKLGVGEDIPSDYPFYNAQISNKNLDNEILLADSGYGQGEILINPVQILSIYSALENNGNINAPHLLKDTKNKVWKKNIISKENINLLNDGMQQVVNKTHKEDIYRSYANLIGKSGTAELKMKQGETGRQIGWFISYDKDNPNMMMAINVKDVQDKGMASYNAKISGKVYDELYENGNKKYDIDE
P99 (class C β-lactamase), sequence (P05364 21-381): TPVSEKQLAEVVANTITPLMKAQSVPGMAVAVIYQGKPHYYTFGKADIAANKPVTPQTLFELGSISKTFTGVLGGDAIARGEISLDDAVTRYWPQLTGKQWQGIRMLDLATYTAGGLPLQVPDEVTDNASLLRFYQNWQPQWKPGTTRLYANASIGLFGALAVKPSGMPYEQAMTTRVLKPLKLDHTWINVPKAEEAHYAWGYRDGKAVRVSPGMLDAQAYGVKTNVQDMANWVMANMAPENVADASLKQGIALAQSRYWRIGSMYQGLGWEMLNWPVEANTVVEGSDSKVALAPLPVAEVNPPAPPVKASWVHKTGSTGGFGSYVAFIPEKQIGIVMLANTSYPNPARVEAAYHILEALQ
OXA-10 (class D β-lactamase), sequence (P14489 20-266, species assumed): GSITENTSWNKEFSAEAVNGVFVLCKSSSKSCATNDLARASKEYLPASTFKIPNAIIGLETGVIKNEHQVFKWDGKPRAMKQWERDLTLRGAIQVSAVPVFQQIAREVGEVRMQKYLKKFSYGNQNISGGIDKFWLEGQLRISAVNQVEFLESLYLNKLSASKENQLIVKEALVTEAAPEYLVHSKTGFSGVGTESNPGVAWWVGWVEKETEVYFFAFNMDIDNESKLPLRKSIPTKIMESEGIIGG

| SMILES | P99 [1] | IC50 [1] [µM] | OXA-10 [2] | IC50 [2] [µM] | MIC (S. aureus NRS11 (Mec^S)) [µg/mL] | IC50 [3] [µM] | TEM-1 [3] | PBP2a* (inhibitory concentration) (PBP2a) | MIC (S. aureus NRS100 (Mec^R)) [µg/mL] | inhibitory activity (in words) (S. aureus NRS100 (Mec^R)) | BlaR (surface domain of B1aR) | inhibitory properties (in words) (S. aureus NRS11 (Mec^S)) | MIC [4] [µg/mL] |
| --- | --- | --- | --- | --- | --- | --- | --- | --- | --- | --- | --- | --- | --- |
| CC(Oc1ccc(NC(=O)c2c(Br)c(Br)c(Br)c(Br)c2C(=O)O)cc1Cl)c1ccccc1 (stereo not drawn) [Compound 382] | xxx | 24.4 ± 1.9 | xxx | 26.6 ± 1.6 | < 8 | 5.3 ± 1.1 | xxx | xxx | < 8 | significant inhibitory activity | – | – | – |
| CCCCCCCCOc1ccc(NC(=O)c2c(F)c(F)c(F)c(F)c2C(=O)O)cc1 [Compound 271] | xxx | – | xxx | – | – | – | xxx | – | – | – | xxx | – | – |
| Cc1ccccc1COc1ccc(NC(=O)c2c(Cl)c(Cl)c(Cl)c(Cl)c2C(=O)O)cc1Cl [Compound 385] | xx | – | xxx | – | 16 (≈ 30 µM) | – | xx | xxx | 16 (≈ 30 µM) | significant inhibitory activity | – | significant inhibitory properties | – |
| Cc1ccccc1COc1ccc(NC(=O)c2c(Br)c(Br)c(Br)c(Br)c2C(=O)O)cc1Cl [Compound 386] | xxx | 15.3 ± 1.6 | xxx | 31.6 ± 3.5 | – | 7.4 ± 1.2 | xxx | xxx | 8 (≈ 11.2 µM) | – | xxx | – | 16 (≈ 22.5 µM) |
| CCC(CO)NC(=O)C1=C(C(=O)O)SCCS1 (stereo not drawn) [Compound 126] | – | – | – | – | – | – | – | xx | – | – | – | – | – |
| CCCCCCCCOc1ccc(NC(=O)c2c(Br)c(Br)c(Br)c(Br)c2C(=O)O)cn1 [Compound 346] | xxx | 7.8 ± 1.2 | xxx | 13.1 ± 0.8 | < 8 | 2.8 ± 0.3 | xxx | – | < 8 | significant inhibitory activity | – | significant inhibitory properties | 8 (≈ 11.7 µM) |
| O=C(O)c1c(F)c(F)c(F)c(F)c1C(=O)Nc1ccc(Oc2cc(C(F)(F)F)cc(C(F)(F)F)c2)cc1 [Compound 412] | – | – | – | – | – | – | – | – | – | – | xx | – | – |
| CCCCCCCCCCCCCCCCOc1ccc(NC(=O)c2c(Cl)c(Cl)c(Cl)c(Cl)c2C(=O)O)cc1 [Compound 290] | xxx | 0.4 ± 0.06 | xxx | 0.5 ± 0.05 | – | 0.6 ± 0.06 | – | – | – | – | xxx | – | – |
| O=C(O)c1c(Cl)c(Cl)c(Cl)c(Cl)c1C(=O)Nc1ccc(Oc2cc(C(F)(F)F)cc(C(F)(F)F)c2)cc1 [Compound 413] | xxx | 31.2 ± 6.4 | xxx | 80.8 ± 7 | – | 27 ± 2.9 | xxx | xxx | 8 (≈ 13.2 µM) | – | – | – | 16 (≈ 26.4 µM) |
| O=C(O)c1c(Br)c(Br)c(Br)c(Br)c1C(=O)Nc1ccc(OCc2cccc(C(F)(F)F)c2)c(Cl)c1 [Compound 390] | xxx | 6 ± 0.8 | xxx | 14.2 ± 1.1 | < 8 | 1.9 ± 0.1 | xxx | xxx | < 8 | significant inhibitory activity | – | – | 8 (≈ 10.5 µM) |
| CCCCCCCCOc1ccc(NC(=O)c2c(F)c(F)c(F)c(F)c2C(=O)O)cc1Cl [Compound 301] | xxx | 9.9 ± 1.7 | xxx | 23 ± 2 | – | 5.1 ± 1 | xx | xxx | 16 (≈ 33.6 µM) | – | xxx | – | – |
| O=C(O)c1c(F)c(F)c(F)c(F)c1C(=O)Nc1ccc(OCc2cccc(OC(F)(F)F)c2)c(Cl)c1 [Compound 418] | – | – | xx | – | – | – | – | – | 125 (≈ 232 µM) | – | xxx | – | – |
| CCCCCCCCCCCCCCCCOc1ccc(NC(=O)c2c(F)c(F)c(F)c(F)c2C(=O)O)cc1 [Compound 289] | xx | 1.2 ± 0.1 | xxx | 0.7 ± 0.15 | – | 23.1 ± 2.4 | – | – | – | – | xxx | – | – |
| O=C(O)C1=C(C(=O)N[C@@H](CO)[C@@H](O)c2ccccc2)SCCS1 [Compound 127] | – | – | – | – | – | – | – | xx | – | – | – | – | – |
| CCCCCCCCOc1ccc(NC(=O)c2c(Cl)c(Cl)c(Cl)c(Cl)c2C(=O)O)cc1Cl [Compound 302] | – | – | – | – | – | – | – | – | 4 (≈ 7.38 µM) | – | – | – | 4 (≈ 7.38 µM) |
| O=C(O)c1ccc([N+](=O)[O-])cc1C(=O)Nc1ccc(OCc2cccc(OC(F)(F)F)c2)c(Cl)c1 [Compound 422] | xx | – | xx | – | – | – | xx | xxx | 125 (≈ 245 µM) | – | xxx | – | – |
| CCCCCCCCCCOc1ccc(NC(=O)c2c(Br)c(Br)c(Br)c(Br)c2C(=O)O)cc1 [Compound 329] | – | – | – | – | – | – | – | – | – | – | xxx | – | – |
| O=C(O)c1ccccc1C(=O)Nc1ccc(OCc2cccc(C(F)(F)F)c2)c(Cl)c1 [Compound 387] | – | – | – | – | – | – | – | – | – | – | xx | – | – |
| CCCCCCCCOc1ccc(NC(=O)c2ccccc2C(=O)O)cc1 [Compound 270] | xxx | – | xxx | – | – | – | xxx | – | – | – | xx | – | – |
| CCCCCCCCOc1ccc(NC(=O)c2c(Br)c(Br)c(Br)c(Br)c2C(=O)O)cc1Cl [Compound 303] | – | – | – | – | – | – | – | – | 4 (≈ 5.56 µM) | – | xx | – | 4 (≈ 5.56 µM) |
| O=C(O)c1c(Br)c(Br)c(Br)c(Br)c1C(=O)Nc1ccc(OCc2cccc(OC(F)(F)F)c2)c(Cl)c1 [Compound 420] | xx | 6.9 ± 1.5 | xxx | 8.4 ± 1.1 | – | 1.6 ± 0.1 | xxx | xxx | 8 (≈ 10.2 µM) | – | xxx | – | 4 (≈ 5.12 µM) |
| O=C(O)c1c(Br)c(Br)c(Br)c(Br)c1C(=O)Nc1ccc(Oc2ccccc2)cc1 [Compound 222] | – | – | – | – | – | – | – | xx | – | – | – | – | – |
| O=C(O)c1ccccc1C(=O)Nc1ccc(OCc2cccc(OC(F)(F)F)c2)c(Cl)c1 [Compound 417] | – | – | – | – | – | – | – | – | 250 (≈ 537 µM) | – | xx | – | – |
| CCCCCCCCCCOc1ccc(N(C)C(=O)c2ccccc2C(=O)O)cc1 [Compound 318] | – | – | – | – | – | – | – | – | – | – | xxx | – | – |
| CCCCCCCCCCOc1ccc(N(C)C(=O)c2c(F)c(F)c(F)c(F)c2C(=O)O)cc1 [Compound 319] | – | – | – | – | – | – | – | – | – | – | xxx | – | – |
| CCCCCCCCCCCCCCCCOc1ccc(NC(=O)c2c(Br)c(Br)c(Br)c(Br)c2C(=O)O)cc1 [Compound 291] | xxx | 0.2 ± 0.02 | xxx | 0.3 ± 0.06 | – | 0.2 ± 0.04 | xxx | – | – | – | xx | – | – |
| CCCCCCCCOc1ccc(NC(=O)c2ccccc2C(=O)O)cc1Cl [Compound 300] | xx | 10.3 ± 0.4 | xx | 30.7 ± 2.8 | – | 0.7 ± 0.08 | xxx | xxx | 8 (≈ 19.8 µM) | – | – | – | 16 (≈ 39.6 µM) |
| CCCCCCCCCCOc1ccc(N(C)C(=O)c2c(Br)c(Br)c(Br)c(Br)c2C(=O)O)cc1 [Compound 316] | – | – | – | – | – | – | – | – | – | – | xx | – | – |
| CCCCCCCCOc1ccc(NC(=O)c2c(Cl)c(Cl)c(Cl)c(Cl)c2C(=O)O)cn1 [Compound 345] | xxx | 27.8 ± 2.9 | xxx | 37.9 ± 6 | 16 (≈ 31.5 µM) | 4.9 ± 0.2 | xxx | – | 16 (≈ 31.5 µM) | significant inhibitory activity | – | significant inhibitory properties | 16 (≈ 31.5 µM) |
